Results reported in patent publication US6465486B1 (Ortho-McNeil Pharmaceutical, Inc., priority 1999, dated 2002).
Where a name gives a salt, the structure may show the parent alone. Read-outs that look alike come from different tables or passages of the source.

Assays:
[1] = target: T1, Alpha-2D Adrenergic Receptor (Rattus norvegicus, UniProt P22909); assay: Alpha-2D Adrenergic Receptor Binding Assay (3H-para-aminoclonidine, rat cortex membranes); details: for % inh of α2D: cells printed with % sign, test concentration not given
T1 construct: aliquots of the synaptic membrane fraction, the ligand ^3H-para-aminoclonidine and test drug; from tissue; host or cells: rat brain cortex, synaptic membrane fraction
T1 sequence (P22909 1-465): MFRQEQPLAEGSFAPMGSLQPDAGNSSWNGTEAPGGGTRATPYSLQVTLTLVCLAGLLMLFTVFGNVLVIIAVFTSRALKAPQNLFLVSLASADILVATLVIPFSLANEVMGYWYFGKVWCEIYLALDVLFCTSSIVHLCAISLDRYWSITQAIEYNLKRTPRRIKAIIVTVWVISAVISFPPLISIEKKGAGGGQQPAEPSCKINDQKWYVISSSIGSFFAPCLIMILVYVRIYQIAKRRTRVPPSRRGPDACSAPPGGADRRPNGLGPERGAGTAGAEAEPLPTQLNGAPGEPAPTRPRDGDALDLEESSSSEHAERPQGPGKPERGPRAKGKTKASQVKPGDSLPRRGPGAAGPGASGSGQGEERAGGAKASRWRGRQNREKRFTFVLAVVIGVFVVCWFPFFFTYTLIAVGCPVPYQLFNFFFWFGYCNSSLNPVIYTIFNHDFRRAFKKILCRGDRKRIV
Method: Alpha-2D Adrenergic Receptor Binding Assay
Male, Wistar rats (150-250 g, VAF, Charles River, Kingston, N.Y.) are sacrificed by cervical dislocation and their brains removed and placed immediately in ice cold HEPES buffered sucrose. The cortex is dissected out and homogenized in 20 volumes of HEPES sucrose in a Teflon™-glass homogenizer. The homogenate is centrifuged at 1000 g for 10 min, and the resulting supernatant centrifuged at 42,000 g for 10 min. The resulting pellet is resuspended in 30 volumes of 3 mM potassium phosphate buffer, pH 7.5, preincubated at 25° C. for 30 min and recentrifuged. The resulting pellet is resuspended as described above and used for the receptor binding assay. […] The incubation is terminated by filtration of the tube contents through glass fiber filter sheets. Following washing of the sheets with 10 mM HEPES buffer, the adhering radioactivity is quantified by liquid scintillation spectrometry.
Binding of the test drug to the receptor is determined by comparing the amount of radiolabeled ligand bound in control tubes without drug to the amount of radiolabeled ligand bound in the presence of the drug. Dose-response data are analyzed with LIGAND, a nonlinear curve fitting program designed specifically for the analysis of ligand binding data.

[2] = system: mouse acetylcholine bromide-induced abdominal constriction; assay: Mouse Acetylcholine Bromide-Induced Abdominal Constriction Assay (MAIT); type: in vivo; details: po; dose not given; acetylcholine bromide 5.5 mg/kg i.p. 30 minutes after drug
Method: Mouse Acetylcholine Bromide-Induced Abdominal Constriction Assay (MAIT)
The mouse acetylcholine bromide-induced abdominal constriction assay, as described by Collier et al. in Brit. J. Pharmacol. Chem. Ther., 32: 295-310, 1968, with minor modifications was used to assess analgesic potency of the compounds herein. The test drugs or appropriate vehicle were administered orally (p.o.) and 30 minutes later the animal received an intraperitoneal (i.p.) injection of 5.5 mg/kg acetylcholine bromide (Matheson, Coleman and Bell, East Rutherford, N.J.). The mice were then placed in groups of three into glass bell jars and observed for a ten minute observation period for the occurrence of an abdominal constriction response (defined as a wave of constriction and elongation passing caudally along the abdominal wall, accompanied by a twisting of the trunk and followed by extension of the hind limbs). The percent inhibition of this response to a nociceptive, stimulus (equated to % analgesia) was calculated as follows: The % Inhibition of response, i.e., % analgesia is equal to the difference between the number of control animals responding and the number of drug-treated animals responding times 100 divided by the number of control animals responding.
At least 15 animals were used for control and in each of the drug treated groups. […] The ED50 values and their 95% fiducial limits were determined by a computer assisted probit analysis.

Row | SMILES | % inh of α2D [1] | % inh of MAIT [2] | melting point | Ki [1] | Ki ([1]; rat cortex synaptic membranes, ligand 3H-para-aminoclonidine, cells without % sign, read-out: α2D Ki)
1 | Cl.Cl.c1cncc(Cc2c[nH]cn2)c1 [Cp-3] | 89% | 47 po % |  |  | 
2 | Brc1cncc(CCc2c[nH]cn2)c1.O=C(O)/C=C/C(=O)O [Cp-5, 4-[(5-Bromopyridin-3-yl)ethyl]-1H-imidazole Fumarate] |  |  | 156 to 158 °C |  | 
3 | Cl.c1ccc(Cc2c[nH]cn2)nc1 [Cp-6, 4-[(Pyridin-2-yl)methyl]-1H-imidazole Hydrochloride] | 83% | 40 po % | 197 to 200 °C |  | 
4 | CC(c1cncc(Br)c1)c1c[nH]cn1 (stereo not shown) [Fumarate] |  | 53 po % |  |  | 
5 | Cc1ncccc1C(C)c1c[nH]cn1 (stereo not shown) [Dihydrochloride] |  | 33 po % |  |  | 
6 | c1ccc2nc(Cc3c[nH]cn3)ccc2c1 [Cp-9] |  | 20 po % |  | 1.6 nM | 
7 | Brc1cncc(Cc2c[nH]cn2)c1.O=C(O)/C=C/C(=O)O [Cp-4, 4-[(5-Bromopyridin-3-yl)methyl]-1H-imidazole Fumarate] | 83% | 54 po % | 139 to 145 °C |  | 
8 | Cc1ncccc1Cc1c[nH]cn1.Cl.Cl [Cp-1, 4-[(2-Methylpyrid-3-yl)methyl]-1H-imidazole Dihydrochloride] |  | 93 po % | 236 to 237.5 °C | 7.1 nM | 
9 | c1ccc(C(c2ccccn2)c2c[nH]cn2)cc1 (stereo not shown) [Cp-7, 4-[(Pyridin-2-yl)methylphenyl]-1H-imidazole] |  | 13 po % |  |  | 1000 nM
10 | Cc1ncccc1CCc1c[nH]cn1.Cl.Cl [Cp-2, 4-[(2-Methylpyrid-3-yl)ethyl]-1H-imidazole Dihydrochloride] |  |  | 258.5 to 263 °C |  | 
